From US7494767B2, “Assay for TSG101 as inhibitors of HIV production” (priority 2001, dated 2009)

How the values were obtained:
HIV-1 particles = assay: Release of HIV-1 virus-like particles from transfected COS-1 cells (Western blot of particles, anti-CA); format: cell-based; conditions: 5 μM pa in the absence of pIND-h-Tsg101-FLAG
[1] = molecular target: T1, Tsg101 capture by Pr55^Gag (Homo sapiens, UniProt Q99816); assay: Immune capture competition assay: Tsg101 capture by Pr55^Gag on antibody-coated Protein A beads; format: binding, mouse or human; conditions: 5-fold molar excess of peptide
T1 construct: anneals at the position corresponding to amino acid 10 in the protein, and 3′ primer no; 30, which anneals to the C-terminus; made in house; host or cells: Tsg101: rabbit reticulocyte lysate (TNT T7 system); Pr55Gag: E. coli BL21-DE3
T1 sequence (Q99816 11-390): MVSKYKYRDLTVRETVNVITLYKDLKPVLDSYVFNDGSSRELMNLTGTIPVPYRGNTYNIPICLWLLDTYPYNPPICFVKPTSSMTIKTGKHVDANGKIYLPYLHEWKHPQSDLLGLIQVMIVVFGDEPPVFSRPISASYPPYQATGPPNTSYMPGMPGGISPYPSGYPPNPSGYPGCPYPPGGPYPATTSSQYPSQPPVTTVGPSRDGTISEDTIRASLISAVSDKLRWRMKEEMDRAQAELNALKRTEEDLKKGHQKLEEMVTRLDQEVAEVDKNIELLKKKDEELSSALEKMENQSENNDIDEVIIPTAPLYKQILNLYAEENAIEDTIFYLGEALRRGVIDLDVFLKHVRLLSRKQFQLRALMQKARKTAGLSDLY
Description: Protein detection. Proteins were separated by electrophoresis through a 12.5% SDS polyacrylamide gel. For detection of radiolabeled Tsg101 after electrophoresis, gels were fixed, incubated for 30 min in EN^3HANCE (DuPont NEN) autoradiography enhancer for gel fluorography and dried. Radioactive bands were visualized using imaging film (BioMax, Kodak). Gels with non-radioactive samples were transferred to nitrocellulose and analyzed by Western blotting. The following antibodies, as specified in the text, were used: anti-capsid (CA)1 and -CA2 (rabbit polyclonal antibodies raised against native and denatured forms of the CA protein, respectively; Ebbets-Reed, D., 1996, in Molecular Microbiology, State University of New York at Stony Brook, Stony Brook, N.Y., pp. 209; Ehrlich, L. S., Agresta, B. E. & Carter, C. A., 1992, J. Virol. 66,4874-4883); anti-CA3 (mouse monoclonal antibody, NEN-DuPont); anti-p6 (rabbit polyclonal against the C-terminal 16 amino acids, S. Campbell, NCI-FCRDC); anti-nucleocapsid (NC, goat polyclonal, A. Rein, NCI-FCRDC); anti-T7 (Novagen); anti-Tsg1011 (monoclonal, Santa Cruz); antiTsg1012 (rabbit polyclonal, obtained from S. Cohen, Stanford U.). […]
Tsg101 binds to Pr55^Gag in vitro. […] The protein was detected consistently as a doublet, perhaps due to internal initiation at Met10. The protein was also sometimes detected as a doublet in cytoplasmic extracts. […]

Molecule	inhibitory effect on virus release (HIV-1 particles)	reduction in Tsg101 capture by Pr55^Gag [1]
CC(C)CC[C@@H](O)[C@](C)(O)[C@H]1CC[C@@]2(O)C3=CC(=O)[C@@H]4C[C@@H](O)[C@@H](O)C[C@]4(C)[C@H]3CC[C@]12C [pa, reference compound]	no inhibitory effect	–
LIAPP	–	no change was detected
